Activity calls are given as the source filed them.
Assays:
[1] = biological target: T1, Short transient receptor potential channel 4 (Mus musculus, UniProt Q9QUQ5); experiment: mouse TRPC4 channel inhibitors, dose response, cell-based, HEK293 TRPC4/mu-opioid, Fluo-4 calcium (AID 434942); format: functional;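 note: potency of inhibitors blocking the TRPC4 calcium response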
T1 sequence (Q9QUQ5 whole entry): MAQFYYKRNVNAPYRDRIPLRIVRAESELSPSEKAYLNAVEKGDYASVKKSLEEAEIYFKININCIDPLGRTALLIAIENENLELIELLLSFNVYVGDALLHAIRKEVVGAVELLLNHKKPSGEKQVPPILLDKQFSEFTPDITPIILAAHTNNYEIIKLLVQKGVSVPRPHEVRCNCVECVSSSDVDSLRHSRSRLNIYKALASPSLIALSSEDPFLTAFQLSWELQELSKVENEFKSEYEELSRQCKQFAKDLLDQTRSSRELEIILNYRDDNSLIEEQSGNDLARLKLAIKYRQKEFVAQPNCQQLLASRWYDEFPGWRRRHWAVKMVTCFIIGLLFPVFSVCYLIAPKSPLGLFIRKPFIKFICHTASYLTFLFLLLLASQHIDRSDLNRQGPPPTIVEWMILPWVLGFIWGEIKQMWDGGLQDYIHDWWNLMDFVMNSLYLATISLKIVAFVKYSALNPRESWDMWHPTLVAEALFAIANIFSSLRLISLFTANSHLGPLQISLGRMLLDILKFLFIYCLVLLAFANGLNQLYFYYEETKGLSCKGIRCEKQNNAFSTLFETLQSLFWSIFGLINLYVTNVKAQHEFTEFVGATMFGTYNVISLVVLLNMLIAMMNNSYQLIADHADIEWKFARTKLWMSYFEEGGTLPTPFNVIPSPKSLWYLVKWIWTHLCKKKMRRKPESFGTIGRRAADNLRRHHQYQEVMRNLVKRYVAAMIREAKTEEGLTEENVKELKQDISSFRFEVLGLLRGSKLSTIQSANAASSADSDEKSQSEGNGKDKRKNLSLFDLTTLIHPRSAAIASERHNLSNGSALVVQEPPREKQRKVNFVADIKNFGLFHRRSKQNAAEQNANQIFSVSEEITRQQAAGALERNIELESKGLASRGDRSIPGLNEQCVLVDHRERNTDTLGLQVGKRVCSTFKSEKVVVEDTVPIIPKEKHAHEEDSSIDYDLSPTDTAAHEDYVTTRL

[2] = biological target: T2, Lysosomal acid glucosylceramidase (Homo sapiens, UniProt P04062); experiment: Dose response cell-based high throughput screening assay to identify enhancers of beta-glucosidase activity. [Related pubchem assays: 784 ]; format: functional
T2 sequence (P04062 whole entry): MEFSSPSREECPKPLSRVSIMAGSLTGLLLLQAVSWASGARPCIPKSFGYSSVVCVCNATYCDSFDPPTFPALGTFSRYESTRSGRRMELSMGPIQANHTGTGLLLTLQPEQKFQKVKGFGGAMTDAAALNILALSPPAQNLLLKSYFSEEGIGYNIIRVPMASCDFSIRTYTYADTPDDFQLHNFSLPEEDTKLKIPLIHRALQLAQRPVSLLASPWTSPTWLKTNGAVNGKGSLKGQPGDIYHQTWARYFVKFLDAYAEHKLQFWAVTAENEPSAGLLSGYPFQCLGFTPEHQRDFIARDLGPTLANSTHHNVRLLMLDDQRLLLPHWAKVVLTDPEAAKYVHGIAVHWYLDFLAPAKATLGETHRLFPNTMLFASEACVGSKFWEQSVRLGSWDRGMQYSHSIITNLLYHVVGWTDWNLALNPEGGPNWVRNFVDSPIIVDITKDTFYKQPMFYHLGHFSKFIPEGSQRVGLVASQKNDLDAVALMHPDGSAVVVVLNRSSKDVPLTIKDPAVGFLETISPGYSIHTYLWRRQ

[3] = biological target: T3, Calpain-2 catalytic subunit (Sus scrofa, UniProt P43367); experiment: pig calpain II inhibitor potency, dose response, biochemical, fluorogenic peptide substrate (AID 1420); format: functional
T3 sequence (P43367 whole entry): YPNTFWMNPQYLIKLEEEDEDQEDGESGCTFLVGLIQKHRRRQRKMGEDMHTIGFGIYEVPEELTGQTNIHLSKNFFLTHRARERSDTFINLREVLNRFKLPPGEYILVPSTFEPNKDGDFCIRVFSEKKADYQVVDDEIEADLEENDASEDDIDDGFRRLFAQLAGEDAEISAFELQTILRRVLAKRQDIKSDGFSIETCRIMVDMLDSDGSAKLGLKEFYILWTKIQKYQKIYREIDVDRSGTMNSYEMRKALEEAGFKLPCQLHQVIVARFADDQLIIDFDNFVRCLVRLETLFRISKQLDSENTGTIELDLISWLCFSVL

[4] = biological target: Nonstructural protein 1 (Influenza A virus, UniProt Q194T2); format: functional, Influenza A virus (A/California/07/2009(H1N1))
[5] = biological target: T4, DNA repair protein RAD52 homolog (Homo sapiens, UniProt P43351); format: functional, biochemical
T4 sequence (P43351 whole entry): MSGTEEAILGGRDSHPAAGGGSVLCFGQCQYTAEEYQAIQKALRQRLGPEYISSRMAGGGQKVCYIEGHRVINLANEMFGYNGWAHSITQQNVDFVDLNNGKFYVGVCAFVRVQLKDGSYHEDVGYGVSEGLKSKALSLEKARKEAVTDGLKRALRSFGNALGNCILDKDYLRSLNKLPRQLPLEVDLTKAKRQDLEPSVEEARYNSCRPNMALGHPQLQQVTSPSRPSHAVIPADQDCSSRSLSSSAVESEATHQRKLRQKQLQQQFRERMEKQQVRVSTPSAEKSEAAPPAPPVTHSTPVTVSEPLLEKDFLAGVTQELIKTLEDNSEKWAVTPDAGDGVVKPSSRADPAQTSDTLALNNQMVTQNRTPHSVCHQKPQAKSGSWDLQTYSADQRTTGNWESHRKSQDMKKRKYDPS

[6] = biological target: T5, Ubiquitin-conjugating enzyme E2 N (Homo sapiens, UniProt P61088); format: functional;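 note: Dose-response confirmation in a TR-FRET assay detecting UBC13-driven polyubiquitin chain formation, inhibition measured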
T5 sequence (P61088 whole entry): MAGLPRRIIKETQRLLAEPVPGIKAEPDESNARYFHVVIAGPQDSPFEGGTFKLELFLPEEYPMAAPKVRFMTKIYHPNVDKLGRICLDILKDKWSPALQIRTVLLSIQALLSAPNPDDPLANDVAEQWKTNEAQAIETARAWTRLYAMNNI

[7] = biological target: Peroxisome proliferator-activated receptor gamma/Nuclear receptor coactivator 1 (Homo sapiens, UniProt P37231); experiment: TR-FRET dose response biochemical High Throughput Screening assay for agonists of the steroid receptor coactivator 1 (SRC-1) recruitment by the peroxisome proliferator-activated receptor gamma (PPAR gamma): non-selective agonists. [Related pubchem assays (depositor defined):AID1300, AID1808, AID504735, AID631]; format: protein assay
[8] = biological target: Peroxisome proliferator-activated receptor gamma/Nuclear receptor coactivator 2 (Homo sapiens, UniProt P37231); experiment: (§1) TR-FRET dose response biochemical High Throughput Screening assay for agonists of the steroid receptor coactivator 2 (SRC-2) recruitment by the peroxisome proliferator-activated receptor gamma (PPAR gamma): non-selective agonists. [Related pubchem assays: 1297, 1032 ]; format: functional
[9] = biological target: Peroxisome proliferator-activated receptor gamma/Nuclear receptor coactivator 3 (Homo sapiens, UniProt P37231); experiment: as §1, with “3 (SRC-3)” for “2 (SRC-2)”, “1301 (Confirmation screen.), 1048 (Primary screen.)]” for “1297, 1032 ]”; format: functional
[10] = biological target: Cytochrome P450 3A4 (Homo sapiens, UniProt P08684); settings: Potency;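 note: confirmatory qHTS run detecting inhibitors and substrates of CYP3A4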
[11] = cytotoxicity in HEK-293T cells, dose response, cytotoxicity control for TCR NF-kB inhibitor project, luminescence, T-cell screen hits (AID 489026); format: functional, cell-based;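 note: cells exposed to compound about 14 hours before the viability readout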
[12] = biological target: Cytochrome P450 2C19 (Homo sapiens, UniProt P33261); experiment: Cytochrome panel assay with activity outcomes. Panel member name: p450-cyp2c19 Compounds with AC50 equal or less than 10 uM are considered active; format: functional
[13] = biological target: SUMO-activating enzyme (Homo sapiens, UniProt Q9UBT2); experiment: inhibitors of in vitro SUMOylation cascade, primary screen, biochemical, HTRF, uHTS (AID 2006); format: protein-complex assay
[14] = biological target: Trypsin (Sus scrofa, UniProt P00761); experiment: porcine trypsin inhibitors, dose response, selectivity assay for Rce1 protease inhibitor project, biochemical, quenched peptide fluorescence, cherry-pick (AID 488789)
[15] = biological target: T6, Heat shock factor protein 1 (Mus musculus, UniProt P38532); experiment: inhibition of MG132-induced HSE-luciferase signal, confirmation, cell-based, NIH3T3, luminescence, dose retest (AID 2382); format: functional;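 note: NIH3T3 fibroblasts with HSF1-driven luciferase reporter stressed by proteasome inhibitor MG132; luminescence from HSF1-driven luciferase expression after 8 hours of MG132 stress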
T6 sequence (P38532 whole entry): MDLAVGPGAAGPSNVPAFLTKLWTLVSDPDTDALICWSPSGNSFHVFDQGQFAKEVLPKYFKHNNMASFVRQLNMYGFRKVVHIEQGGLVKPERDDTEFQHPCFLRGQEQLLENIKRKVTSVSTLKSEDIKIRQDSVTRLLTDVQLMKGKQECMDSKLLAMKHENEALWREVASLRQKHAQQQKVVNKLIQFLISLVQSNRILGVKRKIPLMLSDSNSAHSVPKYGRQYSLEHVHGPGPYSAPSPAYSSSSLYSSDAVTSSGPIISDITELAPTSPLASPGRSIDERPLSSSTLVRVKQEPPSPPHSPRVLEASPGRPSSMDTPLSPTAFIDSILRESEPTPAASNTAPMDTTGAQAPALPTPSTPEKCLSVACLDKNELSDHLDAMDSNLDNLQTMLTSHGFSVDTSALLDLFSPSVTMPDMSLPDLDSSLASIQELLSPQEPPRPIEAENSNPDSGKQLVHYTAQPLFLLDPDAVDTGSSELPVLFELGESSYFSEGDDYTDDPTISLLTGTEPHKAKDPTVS

Sequence of Cytochrome P450 3A4 (P08684 whole entry): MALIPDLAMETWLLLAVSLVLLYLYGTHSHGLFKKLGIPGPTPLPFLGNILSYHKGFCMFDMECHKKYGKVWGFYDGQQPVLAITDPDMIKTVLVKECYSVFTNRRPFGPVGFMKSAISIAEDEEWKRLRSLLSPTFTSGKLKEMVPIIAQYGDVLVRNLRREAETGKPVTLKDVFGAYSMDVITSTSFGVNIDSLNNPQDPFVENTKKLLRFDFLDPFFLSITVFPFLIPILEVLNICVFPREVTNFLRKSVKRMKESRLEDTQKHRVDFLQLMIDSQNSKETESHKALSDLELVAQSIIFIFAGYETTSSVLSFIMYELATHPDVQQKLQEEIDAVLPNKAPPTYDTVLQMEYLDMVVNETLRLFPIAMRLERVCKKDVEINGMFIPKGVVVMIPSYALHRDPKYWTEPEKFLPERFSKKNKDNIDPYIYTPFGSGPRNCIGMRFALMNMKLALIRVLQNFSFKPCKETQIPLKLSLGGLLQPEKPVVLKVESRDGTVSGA
Sequence of Peroxisome proliferator-activated receptor gamma/Nuclear receptor coactivator 3 (P37231 whole entry): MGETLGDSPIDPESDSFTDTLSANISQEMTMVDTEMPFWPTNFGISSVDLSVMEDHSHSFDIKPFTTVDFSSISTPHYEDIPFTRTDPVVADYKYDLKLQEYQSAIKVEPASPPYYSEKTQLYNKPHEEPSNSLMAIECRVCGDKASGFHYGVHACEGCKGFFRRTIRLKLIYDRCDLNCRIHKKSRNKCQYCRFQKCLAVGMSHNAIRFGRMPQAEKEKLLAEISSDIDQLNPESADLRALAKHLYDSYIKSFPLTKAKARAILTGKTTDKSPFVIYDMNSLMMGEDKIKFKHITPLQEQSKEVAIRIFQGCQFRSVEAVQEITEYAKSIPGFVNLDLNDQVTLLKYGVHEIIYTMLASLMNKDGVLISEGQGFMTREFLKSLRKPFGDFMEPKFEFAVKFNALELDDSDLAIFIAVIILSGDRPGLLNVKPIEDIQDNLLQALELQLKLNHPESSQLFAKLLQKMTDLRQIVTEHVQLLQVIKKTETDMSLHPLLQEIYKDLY
Sequence of Peroxisome proliferator-activated receptor gamma/Nuclear receptor coactivator 3 (Q9Y6Q9 whole entry, further chain): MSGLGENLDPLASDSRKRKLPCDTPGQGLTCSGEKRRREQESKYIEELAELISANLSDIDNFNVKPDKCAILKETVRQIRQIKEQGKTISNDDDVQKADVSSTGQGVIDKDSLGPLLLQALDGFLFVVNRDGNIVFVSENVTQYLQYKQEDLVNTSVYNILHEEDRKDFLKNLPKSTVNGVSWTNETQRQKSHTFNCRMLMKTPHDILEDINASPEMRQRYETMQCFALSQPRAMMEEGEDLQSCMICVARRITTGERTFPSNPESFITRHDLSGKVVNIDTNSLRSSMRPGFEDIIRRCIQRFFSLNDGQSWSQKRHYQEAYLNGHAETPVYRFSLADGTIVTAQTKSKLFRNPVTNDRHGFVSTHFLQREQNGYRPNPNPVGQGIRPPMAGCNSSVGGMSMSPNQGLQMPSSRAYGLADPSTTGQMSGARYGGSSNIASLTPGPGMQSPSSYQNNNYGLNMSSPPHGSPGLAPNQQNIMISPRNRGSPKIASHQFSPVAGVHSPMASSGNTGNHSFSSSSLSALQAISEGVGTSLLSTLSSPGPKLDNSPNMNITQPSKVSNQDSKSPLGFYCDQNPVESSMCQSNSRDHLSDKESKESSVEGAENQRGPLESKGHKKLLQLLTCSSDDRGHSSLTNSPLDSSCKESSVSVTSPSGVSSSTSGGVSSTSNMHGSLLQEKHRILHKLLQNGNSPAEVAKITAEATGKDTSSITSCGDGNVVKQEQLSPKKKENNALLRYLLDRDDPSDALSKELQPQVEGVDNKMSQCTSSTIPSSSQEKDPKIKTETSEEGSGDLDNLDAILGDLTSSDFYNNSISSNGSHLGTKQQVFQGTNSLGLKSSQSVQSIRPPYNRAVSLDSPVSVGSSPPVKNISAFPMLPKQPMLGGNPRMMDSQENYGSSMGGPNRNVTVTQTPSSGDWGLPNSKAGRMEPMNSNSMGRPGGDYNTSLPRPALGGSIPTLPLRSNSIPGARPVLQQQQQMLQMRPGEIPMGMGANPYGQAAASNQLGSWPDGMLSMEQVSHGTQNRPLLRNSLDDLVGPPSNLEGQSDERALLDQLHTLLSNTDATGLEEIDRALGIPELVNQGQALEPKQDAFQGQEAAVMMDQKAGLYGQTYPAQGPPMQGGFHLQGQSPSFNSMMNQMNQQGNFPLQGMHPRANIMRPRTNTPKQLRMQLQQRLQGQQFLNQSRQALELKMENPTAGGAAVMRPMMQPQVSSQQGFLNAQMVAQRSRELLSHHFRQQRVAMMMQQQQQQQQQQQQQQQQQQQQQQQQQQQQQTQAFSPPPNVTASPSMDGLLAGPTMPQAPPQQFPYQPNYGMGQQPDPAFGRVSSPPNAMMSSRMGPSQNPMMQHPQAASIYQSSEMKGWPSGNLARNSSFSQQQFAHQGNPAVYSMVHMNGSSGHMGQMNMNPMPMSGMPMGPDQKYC
Sequence of Peroxisome proliferator-activated receptor gamma/Nuclear receptor coactivator 1 (P37231 whole entry): as the sequence (P37231 whole entry) above
Sequence of Peroxisome proliferator-activated receptor gamma/Nuclear receptor coactivator 1 (Q15788 whole entry, further chain): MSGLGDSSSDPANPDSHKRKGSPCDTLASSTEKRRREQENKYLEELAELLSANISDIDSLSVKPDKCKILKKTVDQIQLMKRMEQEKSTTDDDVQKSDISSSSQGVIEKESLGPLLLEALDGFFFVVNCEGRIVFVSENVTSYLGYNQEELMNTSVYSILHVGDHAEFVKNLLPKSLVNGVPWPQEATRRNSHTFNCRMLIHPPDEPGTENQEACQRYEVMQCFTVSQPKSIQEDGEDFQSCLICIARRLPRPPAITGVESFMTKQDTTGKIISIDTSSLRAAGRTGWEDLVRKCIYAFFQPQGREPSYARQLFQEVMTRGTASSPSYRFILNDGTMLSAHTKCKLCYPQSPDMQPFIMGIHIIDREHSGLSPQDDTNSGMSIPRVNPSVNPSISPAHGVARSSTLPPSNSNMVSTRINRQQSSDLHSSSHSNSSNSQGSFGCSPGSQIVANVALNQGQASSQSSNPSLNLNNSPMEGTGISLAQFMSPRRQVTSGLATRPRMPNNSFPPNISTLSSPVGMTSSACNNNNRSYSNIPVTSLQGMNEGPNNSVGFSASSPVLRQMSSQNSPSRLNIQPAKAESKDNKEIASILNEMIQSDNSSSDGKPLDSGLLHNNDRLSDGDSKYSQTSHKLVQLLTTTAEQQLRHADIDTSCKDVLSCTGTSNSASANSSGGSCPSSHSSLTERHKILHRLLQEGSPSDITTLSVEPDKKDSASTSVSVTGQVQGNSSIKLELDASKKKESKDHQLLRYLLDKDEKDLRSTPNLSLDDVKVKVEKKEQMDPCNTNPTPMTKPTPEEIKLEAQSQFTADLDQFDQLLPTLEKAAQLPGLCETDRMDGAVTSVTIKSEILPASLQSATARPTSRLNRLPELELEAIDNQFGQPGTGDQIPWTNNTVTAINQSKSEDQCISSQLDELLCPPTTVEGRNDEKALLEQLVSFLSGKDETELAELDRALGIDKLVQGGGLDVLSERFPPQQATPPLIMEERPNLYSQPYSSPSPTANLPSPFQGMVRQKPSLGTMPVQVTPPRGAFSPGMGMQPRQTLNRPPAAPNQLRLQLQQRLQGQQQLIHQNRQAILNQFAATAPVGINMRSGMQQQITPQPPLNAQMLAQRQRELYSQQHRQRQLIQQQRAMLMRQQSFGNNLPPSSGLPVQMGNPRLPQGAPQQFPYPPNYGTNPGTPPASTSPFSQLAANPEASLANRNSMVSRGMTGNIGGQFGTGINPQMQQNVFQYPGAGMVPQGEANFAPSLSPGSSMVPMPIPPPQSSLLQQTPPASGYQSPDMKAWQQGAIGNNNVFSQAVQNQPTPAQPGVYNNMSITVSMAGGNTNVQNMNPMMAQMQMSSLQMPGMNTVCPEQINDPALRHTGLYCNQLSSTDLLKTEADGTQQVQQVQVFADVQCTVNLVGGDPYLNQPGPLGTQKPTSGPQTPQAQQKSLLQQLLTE
Sequence of Nonstructural protein 1 (Q194T2 whole entry): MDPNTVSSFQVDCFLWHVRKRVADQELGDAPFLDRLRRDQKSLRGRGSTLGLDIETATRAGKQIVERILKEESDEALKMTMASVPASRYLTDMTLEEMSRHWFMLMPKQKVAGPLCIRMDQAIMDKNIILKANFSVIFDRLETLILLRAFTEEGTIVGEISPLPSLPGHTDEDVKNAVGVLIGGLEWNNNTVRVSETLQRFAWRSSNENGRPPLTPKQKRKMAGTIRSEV
Sequence of Trypsin (P00761 whole entry): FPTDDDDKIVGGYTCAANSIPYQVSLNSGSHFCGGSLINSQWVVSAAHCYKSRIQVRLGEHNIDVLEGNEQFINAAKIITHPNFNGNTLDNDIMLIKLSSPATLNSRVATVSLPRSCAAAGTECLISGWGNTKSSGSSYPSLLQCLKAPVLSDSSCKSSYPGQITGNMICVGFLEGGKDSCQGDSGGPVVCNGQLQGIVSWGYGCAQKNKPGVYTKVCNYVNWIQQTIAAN

Cc1n[nH]c(C)c1CCCCOc1ccccc1
EC50 [1]: 3.76 µM (active)

Nc1nonc1-c1noc(CCCCCN2C(=O)c3ccccc3C2=O)n1
EC50 [2]: > 10 µM (not active)
IC50 [3]: 2.74 µM (not active)

CN1CCN(C2CCN(Cc3ccc(O)c4ncccc34)CC2)CC1
IC50 [4]: 5.84 µM (active)
AC50 [5]: 1.11 µM (active)
IC50 [6]: > 20 µM (inactive)

CCOCc1cn(CC(=O)c2ccc(Cl)cc2)c(C)nc1=N
EC50 [1]: 2.99 µM (active)

O=C(Oc1ccccc1)Oc1ccc2c(c1)oc(=O)c1ccccc12
EC50 [7]: > 79.4 µM (inactive)
EC50 [8]: 64.1 µM (not active)
EC50 [9]: > 79.4 µM (not active)

COCCCn1c(SCC(=O)OC2CCCCC2)nnc1-c1ccco1
EC50 [2]: > 50 µM (not active)

Cn1c(NCc2ccccc2O)nc2ccccc21
EC50 [1]: 7.5 µM (active)

NS(=O)(=O)c1ccc(-c2ccc(/C=C3\C(=O)Nc4cc(Cl)ccc43)o2)cc1
EC50 [7]: 19.7 µM (inactive)
EC50 [8]: 9.96 µM (active)
EC50 [9]: > 26.5 µM (not active)

FC(F)(F)c1ccc(C2[C@H]3CN(Cc4ccc(-c5ccccc5)cc4)[C@H](c4ccccc4)C34CC2(c2ccccc2)C4)cc1 (some centres undefined)
AC50 [10]: 25.1 µM (inconclusive)

CCOCCCNC(=O)c1cc2c(=O)n3cccc(C)c3nc2n1C
IC50 [11]: > 80 µM (inactive)

Cc1nonc1NC(=O)OCCN1CCOC1=O
EC50 [2]: > 50 µM (not active)
AC50 [12]: inconclusive

OC(COCC1CC=CCC1)Cn1cnc2ccccc21 (centres undefined)
EC50 [2]: > 50 µM (not active)

Cc1ccc2[nH]c3c(c2c1)CN(C(=O)CN1CCCc2ccccc21)CC3
IC50 [13]: 69.6 µM (active)

Cc1ccc(-c2csc(N3CCN(c4cc5c(cc4Cl)nc(C)n5CCN4CCCCC4)CC3)n2)cc1
IC50 [6]: > 20 µM (inactive)

O=C1C(Cc2c[nH]c3ccccc23)NC(=S)N1Cc1ccccc1 (centres undefined)
AC50 [14]: 14.3 µM (active)

COC(=O)N1C2(C=CC1(C)C(=O)NCc1ccc(N(C)C)cc1)CCCCC2 (centres undefined)
AC50 [10]: 0.501 µM (inconclusive)

O=C(NCCCN1CCCCC1)C1CCN(c2ncnc3c2nc2n3CCCCC2)CC1
IC50 [6]: > 20 µM (inactive)

COC(=O)C1=C(C)N(Cc2ccccc2)[C@]23O[C@](C(=O)OC)(C(=O)N2C1c1ccccc1)C(C(=O)OC)=C3C(=O)OC (some centres undefined)
AC50 [10]: 3.16 µM (inconclusive)

Nc1c2c(nc3ccccc13)N(c1ccccc1)CC2
EC50 [15]: > 195 µM (not active)
EC50 [1]: 1.88 µM (active)

CCc1ccc(-c2cc(C(=O)N/N=C/c3ccccn3)[nH]n2)cc1
IC50 [6]: > 20 µM (inactive)
